Measurements published in PubChem BioAssay (NCI).
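Growth conditions: 96-well plates. Treatment: test compound, 48 hours, 5 concentrations. Analysis: linear interpolation between bracketing concentrations; unreached endpoints set to highest concentration. Abbreviation: GI50, concentration required for 50% inhibition of growth. TGI: total growth inhibition.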

Tests used:
Experiment in all cases: inhibition of tumour cell growth, NCI panel, 48 h
[1] = system: U251 CNS
[2] = system: HOP-92 NSCLC
[3] = system: SK-MEL-2 melanoma
[4] = system: COLO 205 colon
[5] = system: ACHN renal
[6] = system: NCI-H23 lung
[7] = system: HL-60(TB) leukemia
[8] = system: A549 NSCLC
[9] = system: M14 melanoma
[10] = system: HCC-2998 colon
[11] = system: OVCAR-8 ovarian
[12] = system: NCI-H460 lung
[13] = system: SF-295 CNS
[14] = system: SK-MEL-5 melanoma
[15] = system: EKVX NSCLC
[16] = system: SF-539 CNS
[17] = system: K-562 leukemia
[18] = system: HT29 colon
[19] = system: HOP-62 NSCLC
[20] = system: MDA-MB-435
[21] = system: SK-MEL-28 melanoma
[22] = system: 786-0 renal
[23] = system: SF-268 CNS
[24] = system: OVCAR-3 ovarian
[25] = system: UACC-62 melanoma
[26] = system: MOLT-4 leukemia
[27] = system: HS 578T breast
[28] = system: OVCAR-5 ovarian
[29] = system: A498 renal

Question: With `CC/C=C\CCC/C=C1/C(=O)C=C[C@@H]1C/C=C\CCCC(=O)O` as the compound, how does the GI50 [1] read?
Answer: 3.7 µM

Question: And the TGI [1]?
Answer: 13.6 µM

Question: What about the GI50 [2] of the same compound?
Answer: 13.2 µM

Question: What about the TGI [2] of the same compound?
Answer: 27 µM

Question: What about the GI50 [3] of the same compound?
Answer: 4.82 µM

Question: What about the TGI [3] of the same compound?
Answer: 18.3 µM

Question: And the GI50 [4]?
Answer: 5.83 µM

Question: And the TGI [4]?
Answer: 18.4 µM

Question: And the GI50 [5]?
Answer: 1.89 µM

Question: And the TGI [5]?
Answer: 3.61 µM

Question: What about the GI50 [6] of the same compound?
Answer: 3.37 µM

Question: What about the TGI [6] of the same compound?
Answer: 13.7 µM

Question: What about the GI50 [7] of the same compound?
Answer: 2.75 µM

Question: And the TGI [7]?
Answer: 7.41 µM

Question: What about the GI50 [8] of the same compound?
Answer: 12.8 µM

Question: And the TGI [8]?
Answer: 32.7 µM

Question: What about the GI50 [9] of the same compound?
Answer: 3.89 µM

Question: And the TGI [9]?
Answer: 17.3 µM

Question: And the GI50 [10]?
Answer: 1.8 µM

Question: And the TGI [10]?
Answer: 3.39 µM

Question: What about the GI50 [11] of the same compound?
Answer: 2.96 µM

Question: What about the TGI [11] of the same compound?
Answer: 9.87 µM

Question: What about the GI50 [12] of the same compound?
Answer: 4.49 µM

Question: And the TGI [12]?
Answer: 25.3 µM

Question: And the GI50 [13]?
Answer: 2.87 µM

Question: And the TGI [13]?
Answer: 8.13 µM

Question: What about the GI50 [14] of the same compound?
Answer: 1.72 µM

Question: What about the TGI [14] of the same compound?
Answer: 3.31 µM

Question: What about the GI50 [15] of the same compound?
Answer: 4.02 µM

Question: And the TGI [15]?
Answer: 14 µM

Question: And the GI50 [16]?
Answer: 3.52 µM

Question: What about the TGI [16] of the same compound?
Answer: 12.4 µM

Question: And the GI50 [17]?
Answer: 2.5 µM

Question: And the TGI [17]?
Answer: 37.9 µM

Question: And the GI50 [18]?
Answer: 2.5 µM

Question: And the TGI [18]?
Answer: 5.27 µM

Question: What about the GI50 [19] of the same compound?
Answer: 7.61 µM

Question: And the TGI [19]?
Answer: 22 µM

Question: What about the GI50 [20] of the same compound?
Answer: 2.01 µM

Question: What about the TGI [20] of the same compound?
Answer: 4.99 µM

Question: What about the GI50 [21] of the same compound?
Answer: 3.13 µM

Question: And the TGI [21]?
Answer: 10.6 µM

Question: What about the GI50 [22] of the same compound?
Answer: 4.37 µM

Question: And the TGI [22]?
Answer: 15.1 µM

Question: And the GI50 [23]?
Answer: 5.03 µM

Question: And the TGI [23]?
Answer: 22.1 µM

Question: What about the GI50 [24] of the same compound?
Answer: 3.36 µM

Question: What about the TGI [24] of the same compound?
Answer: 10.9 µM

Question: What about the GI50 [25] of the same compound?
Answer: 2.22 µM

Question: What about the TGI [25] of the same compound?
Answer: 4.93 µM

Question: And the GI50 [26]?
Answer: 2.44 µM

Question: And the TGI [26]?
Answer: 8.93 µM

Question: And the GI50 [27]?
Answer: 13.7 µM

Question: What about the TGI [27] of the same compound?
Answer: 59.3 µM

Question: And the GI50 [28]?
Answer: 4.85 µM

Question: And the TGI [28]?
Answer: 15.3 µM

Question: What about the GI50 [29] of the same compound?
Answer: 18.4 µM
